# Data taken from patent US9011882B2, “Dimethylarginine dimethylaminohydrolase inhibitors and methods of use thereof” (The Board of Trustees of the Leland Stanford Junior …, priority 2012, dated 2015).
# Entries after “also recorded” stand apart in the source; their conditions may differ.
# How the values were obtained:
# [1] = biological target: recombinant human DDAH1 (rhDDAH1) (Homo sapiens (Human), UniProt O94760); test: Colorimetric L-citrulline assay of DDAH activity (ADMA substrate; high throughput screen and orthogonal validation); format: biochemical; conditions: for IC50: high throughput screen of library copies (BMF-6, BMF-7, BMF-8, MicroSource, LOPAC), dose-dependent inhibition
# Sequence of recombinant human DDAH1 (rhDDAH1) (O94760 whole entry): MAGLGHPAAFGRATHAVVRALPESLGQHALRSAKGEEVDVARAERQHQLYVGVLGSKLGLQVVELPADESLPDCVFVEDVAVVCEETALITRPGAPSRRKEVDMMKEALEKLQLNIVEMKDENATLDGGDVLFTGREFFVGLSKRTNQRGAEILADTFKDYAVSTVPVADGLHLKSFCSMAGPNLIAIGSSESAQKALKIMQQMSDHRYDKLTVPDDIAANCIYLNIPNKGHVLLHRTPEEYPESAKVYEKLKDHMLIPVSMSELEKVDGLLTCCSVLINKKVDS
# Experimental: (§1) The enzymatic activity of DDAH was monitored using a colorimetric assay that detects product (L-citrulline) formation from the substrate ADMA. In brief, recombinant human DDAH1 (rhDDAH1) was mixed with ADMA in the presence of screening buffer in 384-well plates. Plates were incubated at 37° C. for 4 hours. Subsequently, color developing reagent (containing 2 volumes of Antipyrine and 1 volume of 2,3-Butanedione oxime reagents) was added and the plates were incubated at 60° C. for 90 min prior to spinning them at 1,500 rpm for 5 min. In this assay absorbance is proportional to the concentration of citrulline generated by DDAH, and was measured using an AnalystGT plate reader at 485 nm using a dichroic beamsplitter.
# as §1, with “ADMA, as described in Example 1.” for “ADMA.”, “antipyrine” for “Antipyrine”
# The L-citrulline assay was based upon an original test-tube method developed by Prescott and Jones in 1969 (Prescott, L. M. & Jones, M. E. Modified methods for the determination of carbamyl aspartate. Anal Biochem 32, 408-419 (1969)), which was adapted and optimized for a microplate format. Subsequently, the activity of DDAH was quantified by detecting its conversion of ADMA to citrulline using the optimized protocol. The assay was scaled up to a 384-well format for high throughput chemical screening.
# (§2) Over 130,000 small molecules deposited in the Stanford High-throughput Bioscience Center (HTBC) were screened using the enzymatic assay to identify chemicals that regulate DDAH activity. In brief, recombinant human DDAH1 (rhDDAH1) was mixed with ADMA in the presence of screening buffer in 384-well plates using a Staccato multidrop. Small molecules (100 nL each) were then added to the wells using a robotic arrayer to yield a final compound screening concentration of up to 50 μM. Plates were incubated at 37° C. for 4 hours. Subsequently, color developing reagent (containing 2 volumes of Antipyrine and 1 volume of 2,3-Butanedione oxime reagents) was added using Velocity 11 system and the plates were sealed using an automated plate sealer. Finally, color was developed by incubating the plates at 60° C. for 90 minutes prior to spinning them at 1,500 rpm for 5 minutes. In this assay absorbance is proportional to the concentration of citrulline generated by DDAH, and was measured using an AnalystGT plate reader at 485 nm using a dichroic beamsplitter. The signal-to-noise ratio of separation was calculated using an established formula in Zhang. (Zhang, J. H., Chung, T. D. & Oldenburg, K. R. A Simple Statistical Parameter for Use in Evaluation and Validation of High Throughput Screening Assays. J Biomol Screen 4, 67-73 (1999)).
# In brief, various amounts of rhDDAH1 (0.1 to 10 μM) were incubated with various concentrations of ADMA (1 μM to 8 mM) for various time points (30 min to 10 h) at room temperature or 37° C. […] The reactions were stopped and color was developed as described above followed by incubation at 60° C. for 90 min. Absorbance, proportional to DDAH activity, was measured at 485 nm±20 nm. In order to screen the entire library, the biochemical properties of the assay were optimized, as described above. The technique was modified so as to reduce the number of steps and facilitate robotic handling and throughput. Subsequently, HTS was performed using 384-well plates. […]
# human DDAH1 [2] = biological target: T1, human DDAH1 (Homo sapiens (Human), UniProt O94760); test: Fluorimetric CPM assay of DDAH activity (SMTC substrate); format: biochemical; conditions: for inhibition of DDAH activity, CPM fluorometric validation: fresh powders from vendors, vs vehicle; for IC50: CPM assay, 100 μM SMTC, Assay Explorer software, read-out: IC50
# T1 sequence (O94760 whole entry): as above
# Experimental: (§3) The activity of human DDAH1 was quantified using fluorimetric assay by incubating the enzyme with an artificial substrate S-methyl-thiocitrulline (SMTC). DDAH metabolizes SMTC into L-citrulline and methanethiol (CH3—SH). The thiol released from the reaction can be monitored fluorimetrically by adding 7-Diethylamino-3-(4-maleimidophenyl)-4-methylcoumarin (CPM).
# as §3, with “(SMTC), as described in Example 1.” for “(SMTC).”
# For the secondary assay, a fluorimetric assay that uses SMTC as a substrate was adapted. DDAH metabolizes SMTC into L-citrulline and methanethiol (CH3—SH). In brief, DDAH (30 nM final concentration) was mixed with SMTC (100 μM final concentration), CPM (50 μM final concentration) and screening buffer (containing a final concentration of 0.01% Triton-X100 and 1 mM EDTA). The reaction mix was added to black 384-well plates to validate primary hits that modulate DDAH activity. The release of CH3—SH was monitored fluorimetrically by adding 7-Diethylamino-3-(4-maleimidophenyl)-4-methylcoumarin (CPM) as described in Linsky (Linsky, T. & Fast, W. A continuous, fluorescent, high-throughput assay for human dimethylarginine dimethylaminohydrolase-1. J Biomol Screen 16, 1089-1097 (2011)).
# [3] = system: human microvascular endothelial cells (HMEC-1); test: Intracellular ADMA by ELISA in endothelial cells; format: cell-based; conditions: 20 μM, 24 hours, compared to vehicle control
# Experimental: (§4) First, human microvascular endothelial cells (HMEC-1; ATCC) were seeded in 75 cm^2 cell culture flasks and cultured in fully supplemented DMEM (Invitrogen cat #11995; supplemented with 10% fetal bovine serum (FBS), 4 mM HEPES; GIBCO 15630 and penicillin/streptomycin). The cells were incubated at 37° C./5% CO2 until ˜60% confluency. The cells were then washed with phosphate buffered saline (PBS) and plain DMEM (DMEM with no addition of serum or the other supplements) was mixed with esomeprazole (20 μM final concentration from 100 mM stock) and added to the cells. […] After ˜4 hrs of incubation, the media was aspirated from each flask and the cells were cultured in fully supplemented DMEM as described above and incubated at 37° C./5% CO2 for another 20 hrs. The serum was initially withdrawn due to the possibility that esomeprazole would interact with Cys containing serum proteins and fail to internalize at effective concentrations.
# After 24 hrs, the cells were harvested. Total cellular protein was estimated as described and ADMA was measured by enzyme-linked immunosorbent assay (ELISA) following the manufacturer's recommendations; DLD Diagnostika, Hamburg, Germany).
# as §4, with “FBS,” for “fetal bovine serum (FBS),”, “PBS” for “phosphate buffered saline (PBS)”, “PD 404” for “esomeprazole”, “conc” for “concentration”, “The serum was initially withdrawn due to the possibility that esomeprazole would interact with Cys containing serum proteins and fail to internalize at effective concentrations.” left out
# After 24 hours, the cells were harvested. Total cellular protein was estimated as described and ADMA was measured by ELISA following the manufacturer's recommendations; DLD Diagnostika, Hamburg, Germany).
# human DDAH1 [4] = biological target: T1, human DDAH1; test: Inhibitors of human DDAH-1 validated in full dose-response curves (Table 1); format: biochemical; conditions: for IC50: Assay Explorer software
# Experimental: as §2
# Inhibitors were defined as compounds that reduce absorbance by at least 30% compared to control wells. The hits were validated using 8-point full dose response study (50 μM to 0.39 μM in serial dilutions). […] To determine which of these hits were true inhibitors of DDAH activity, a modification of a validated secondary fluorometric assay was used, as described below. […]
# [5] = fresh powders, FIG. 3, vs vehicle
# [6] = 50 μM, compared to vehicle control
Hill Slope (human DDAH1 [4]),IC50 (human DDAH1 [4]) [µM],SMILES,other results
–,–,COc1ccc2nc([S@@+]([O-])Cc3ncc(C)c(OC)c3C)[nH]c2c1 [Esomeprazole],"inhibition of DDAH activity, orthogonal colorimetric assay [1, 5]: significantly inhibited DDAH activity; inhibition of DDAH activity, CPM fluorometric validation (human DDAH1 [2]): inhibited DDAH activity significantly; increase in intracellular ADMA [3]: ~37%"
1.7,8.6,Cc1cc(C)c2c(=O)n(CC(=O)NC3CCCC(C)C3C)sc2n1 (centres unmarked),–
1,13.2,O=c1[nH]sc2ccccc12 [Benzo[d]isothiazol-3(2H)-one],–
–,–,COc1ccc2[nH]c([S+]([O-])Cc3ncc(C)c(OC)c3C)nc2n1 (centres unmarked) [Tenatoprazole],"IC50 [1]: 7.8 µM; inhibition of DDAH activity, CPM fluorometric validation (human DDAH1 [2]): inhibited DDAH activity significantly"
1.3,17.7,N/C=C1\C=C(c2ccccc2)OC1=S,–
–,–,CN=c1nc(-c2ccccc2)n(-c2ccccc2)s1 [SCH-202676],IC50 (human DDAH1 [2]): 13.3 µM
1.7,13.7,Cc1cc(C)c2c(=O)n(CC(=O)NC(C)c3ccccc3)sc2n1 (centres unmarked),–
2.3,7.1,CCOCCCNC(=O)Cn1sc2nc(C)cc(C)c2c1=O,–
0.4,39.9,Cc1cc(C)c2c(=O)n(CC(=O)NCc3ccccc3Cl)sc2n1,–
1.7,5.1,CCCCNC(=O)Cn1sc2nc(C)cc(C)c2c1=O,–
1.6,12.8,Cc1cc(C)c2c(=O)n(CC(=O)NCCCSC3CCCCC3)sc2n1,–
1.6,23.3,O=C(O)c1ccc(N2C(=O)C=CC2=O)cc1,–
1.5,10.5,CCOc1ccc(CCNC(=O)Cn2sc3nc(C)cc(C)c3c2=O)cc1,–
1.1,21.2,Cc1ccc(NC(=O)/C=C/C(N)=O)cc1,–
–,–,Cc1c(OCC(F)(F)F)ccnc1C[S+]([O-])c1nc2ccccc2[nH]1 (centres unmarked) [Lansoprazole],"IC50 [1]: 51 µM; inhibition of DDAH activity, CPM fluorometric validation (human DDAH1 [2]): inhibited DDAH activity significantly"
1.2,13.4,Cc1cc(C)c2c(=O)n(CC(=O)NCCc3ccc(Cl)cc3)sc2n1,–
1.4,3.3,COCCNC(=O)Cn1sc2nc(C)cc(C)c2c1=O,–
1.1,45.8,Cc1ccc(-c2ccc(CCC(=O)O)o2)cc1,–
–,–,COCCCOc1ccnc(C[S+]([O-])c2nc3ccccc3[nH]2)c1C (centres unmarked) [Rabeprazole],"inhibition of DDAH activity, orthogonal colorimetric assay [1, 5]: significantly inhibited DDAH activity; inhibition of DDAH activity, CPM fluorometric validation (human DDAH1 [2]): inhibited DDAH activity significantly"
2,11.8,Cc1cc(C)c2c(=O)n(CC(=O)NCCC3=CCCCC3)sc2n1,–
1.5,9.9,COc1ccc(OC)c(CCNC(=O)Cn2sc3nc(C)cc(C)c3c2=O)c1,–
1.5,11,Cc1cc(C)c2c(=O)n(CC(=O)NCc3ccc4c(c3)OCO4)sc2n1,–
1.8,13.1,O=C1CC(N2CCCCCC2)C(=O)N1c1cccc2ccccc12 (centres unmarked),–
1.6,14.1,Cc1cc(C)c2c(=O)n(CC(=O)NC(C)CCc3ccccc3)sc2n1 (centres unmarked),–
–,–,N=C1Sc2ccccc2C2=NCCCN12 [PD 404],"inhibition of DDAH activity, orthogonal colorimetric assay [1, 6]: significantly inhibited DDAH activity; IC50 [1]: 8.71 µM; inhibition of DDAH activity, CPM fluorometric assay (human DDAH1 [2]; [6]): directly inhibit DDAH activity; also recorded: inhibited DDAH activity significantly; increase in intracellular ADMA [3]: ~84%"
–,–,COc1ccnc(C[S+]([O-])c2nc3cc(OC(F)F)ccc3[nH]2)c1OC (centres unmarked) [Pantoprazole],"IC50 [1]: 63 µM; inhibition of DDAH activity, CPM fluorometric validation (human DDAH1 [2]): inhibited DDAH activity significantly"
–,–,"COc1cnn(-c2ccccc2)c(=O)c1S [4-MMP, 4-mercapto-5-methoxy-2-phenyl-3(2H)-pyridazinone]",IC50 (human DDAH1 [2]): 12.7 µM
–,–,O=c1c2ccccc2[se]n1-c1ccccc1 [ebselen],"inhibition of DDAH activity, CPM fluorometric validation (human DDAH1 [2]): confirmed known DDAH inhibitors"
